Experimental data from patent US7462595B2, “Methods for treating cancer-related fatigue” (priority 2004, dated 2008).

Columns and labels:
[1] = system: patients with severe CRF (breast cancer or prostate cancer); assay: randomized, double-blind, placebo-controlled study of taltirelin in idiopathic cancer-related fatigue; format: in vivo, human; conditions: 10 mg vs placebo; after 6 weeks of treatment
Method: Patient Selection. Patients with a diagnosis of cancer, in this study, breast cancer, or prostate cancer, are screened for CRF using a brief fatigue inventory (BFI) in an oncology clinic setting. The BFI is a simple 9-item self-administered scale and requires about 5-10 minutes to complete. Patients experiencing a severe level of fatigue (BFI≧7) are identified based on this screening. […]
Both groups undergo a comprehensive assessment to investigate different aspects of fatigue. […] Patients are also evaluated for two major psychiatric disorders frequently co-occurring with CRF, depressive disorders and anxiety disorders. […]
In the intervention phase of the study, patients receive study medication or placebo based on their group assignments. […] Patients are assessed for their overall status using the clinical global impressions severity of illness scale (CGI-S) at randomization, at week 4 and at the end of the intervention phase. They are also assessed for any global improvement using clinical global impressions improvement scale (CGI-I) at week 4 and at the end of intervention phase. […]

[2] = system: patients with severe CRF (breast cancer or prostate cancer); assay: double-blind, placebo-controlled crossover study of intravenous TRH infusions in idiopathic cancer-related fatigue; format: in vivo, human
Method: Patient Selection. Patients with a diagnosis of cancer, in this study, breast cancer; or prostate cancer, are screened for CRF using a brief fatigue inventory (BFI) in an oncology clinic setting. The BFI is a simple 9-item self-administered scale and requires about 5-10 minutes to complete. Patients experiencing a severe level of fatigue (BFI≧7) are identified based on this screening. These patients then undergo additional screening with a comprehensive interview and laboratory assessments (hemoglobin, hematocrit, thyroid stimulating hormone concentration, and electrolytes) to identify and exclude patients with medically reversible or other treatable causes of fatigue (viz. anemia, hypothyroidism, electrolyte abnormalities, significant pain dominating the CRF presentation). […]
The patients selected undergo a comprehensive assessment to investigate different aspects of fatigue. […] Patients are evaluated for two major psychiatric disorders frequently co-occurring with CRF, depressive disorders and anxiety disorders. […]
The study utilizes a double-blind, placebo-controlled crossover design. […], patients are evaluated in the General Clinical Research Unit (GCRC) of the John Dempsey Hospital and receive intravenous infusions of TRH (0.5 mg for the first active drug trial, 1.5 mg for the second active drug trial) or saline in random order following an ABBA crossover design. […]

[3] = system: patients with spinocerebellar degeneration (SCD); conditions: cited from earlier work

taltirelin
improving cancer related fatigue, change from baseline in mean fatigue scores assessed using BFI and MFI [1]: superior to placebo
improving quality of life, change from baseline in mean quality of life scores assessed using SF-36 [1]: superior to placebo

NC(=O)[C@@H]1CCCN1C(=O)[C@H](Cc1cnc[nH]1)NC(=O)[C@@H]1CCC(=O)N1 [TRH, L-pyroglutamyl-L-histidyl-L-prolineamide]
improving cancer related fatigue, change from baseline in mean fatigue scores assessed using the BFI and MFI ([2]; TRH 0.5 mg or 1.5 mg infusion vs placebo (saline), each comparison point during 4 week treatment intervention phase): superior to placebo
improving quality of life, change from baseline in mean quality of life scores assessed using SF-36 ([2]; TRH 0.5 mg or 1.5 mg vs placebo, of treatment): superior to placebo

CN1C(=O)C[C@@H](C(=O)N[C@@H](Cc2c[nH]cn2)C(=O)N2CCC[C@H]2C(N)=O)NC1=O [taltirelin]
safety record and side effect profile ([3]; Phase III clinical trials and post-marketing surveillance in Japan): excellent safety record
efficacy in the treatment of spinocerebellar degeneration (SCD) ([3]; SCD patients): some efficacy
